Legend:
Format in all cases: in vivo
[1] = test system: greenhouse red spider mite (Tetranychus urticae); assay: Tetranychus spray test, OP-resistant (TETRUR); settings: after 6 days, bean leaf discs
Procedure: Tetranychus Spray Test, OP-resistant (TETRUR)
(§1) Solvents: 78.0 parts by weight of acetone • • 1.5 parts by weight of dimethylformamide
Emulsifer: 0.5 part by weight of alkylaryl polyglycol ether
(§2) To produce a suitable preparation of active compound, 1 part by weight of active compound is mixed with the stated amounts of solvent and emulsifier, and the concentrate is diluted with emulsifier-containing water to the desired concentration.
Discs of bean leaves (Phaseolus vulgaris) which are infested by all stages of the greenhouse red spider mite (Tetranychus urticae) are sprayed with an active compound preparation of the desired concentration.
After 6 days, the effect in % is determined 100% here means that all of the spider mites have been killed; 0% means that none of the spider mites have been killed.

[2] = test system: green peach aphid (Myzus persicae); assay: Myzus persicae spray test (MYZUPE); settings: 500 g/ha, after 6 days, Chinese cabbage disks
Procedure: Myzus persicae Spray Test (MYZUPE) Solvents: 78 parts by weight of acetone • • 1.5 parts by weight of dimethylformamide Emulsifier: 0.5 part by weight of alkylaryl polyglycol ether To produce a suitable preparation of active compound, 1 part by weight of active compound is mixed with the stated amounts of solvent and emulsifier, and the concentrate is diluted with emulsifier-containing water to the desired concentration. Disks of Chinese cabbage (Brassica pekinensis) infested by all stages of the green peach aphid (Myzus persicae) are sprayed with an active compound formulation of the desired concentration. After 6 days, the effect in % is determined 100% here means that all of the aphids have been killed; 0% means that none of the aphids have been killed.

Lucilia cuprina larvae = assay: Lucilia cuprina (48 h) test; settings: 100 ppm, after 48 hours, treated horse meat
Procedure: Lucilia Cuprina (48 h) Solvent: dimethyl sulfoxide To produce a suitable preparation of active compound, 10 mg of active compound are mixed with 0.5 ml of dimethyl sulfoxide, and the concentrate is diluted with water to the desired concentration. Vessels containing horse meat treated with the active compound preparation of the desired concentration are populated with about 20 Lucilia cuprina larvae. After 48 hours, the kill in % is determined 100% means that all larvae have been killed; 0% means that no larvae have been killed.

[3] = test system: larvae of the mustard beetle (Phaedon cochleariae); assay: Phaedon cochleariae spray test (PHAECO); settings: 500 g/ha, after 7 days, Chinese cabbage leaf disks
Procedure: Phaedon Cochleariae Spray Test (PHAECO)
as §1
Emulsifier: 0.5 part by weight of alkylaryl polyglycol ether
as §2
After 7 days, the effect in % is determined 100% means that all beetle larvae have been killed; 0% means that none of the beetle larvae have been killed.

| Compound | efficacy (effect in %, spider mites killed) ([1]; 500 g/ha) [%] | efficacy (effect in %, aphids killed) [2] [%] | efficacy (effect in %, spider mites killed) ([1]; 100 g/ha) [%] | other results |
| --- | --- | --- | --- | --- |
| CCn1nc(-c2ccc(Cl)cc2)nc1C1=C(O)C(C)(C)NC1=O [Example I-1-a1-4] | 80 | 80 |  |  |
| CCn1nc(-c2ccc(Cl)cc2)nc1C1=C(O)C2CCCN2C1=O (centres unmarked) [Example I-1-a4-4] | 100 |  |  |  |
| Cn1nc(-c2ccc(Cl)cc2)nc1-c1c(O)n2n(c1=O)CCOCC2 [Example I-8-a3] |  | 90 | 90 |  |
| CC1COC2(CCC3(CC2)NC(=O)C(c2nc(-c4ccc(Cl)cc4)nn2C)=C3O)OC1 (centres unmarked) [Example I-1-a13-3] |  | 90 |  |  |
| Cn1nc(-c2ccc(Cl)cc2)nc1C1=C(O)C(C)(C)NC1=O [Example I-1-a1-3] | 100 |  |  | efficacy (kill in %) (Lucilia cuprina larvae): 90% |
| C=CCOC1CCC2(CC1)NC(=O)C(c1nc(-c3ccc(Cl)cc3)nn1C)=C2O (centres unmarked) [Example I-1-a11-3] |  | 90 | 90 |  |
| CC1CCC2(CC1)NC(=O)C(c1nc(-c3ccc(Cl)cc3)nn1C)=C2O (centres unmarked) [Example I-1-a7-3] | 90 | 90 |  |  |
| CC(C)n1nc(-c2ccc(Cl)cc2)nc1C1=C(O)C(C)(C)NC1=O [Example I-1-a1-9] |  |  | 90 |  |
| CCON1CCC2(CC1)NC(=O)C(c1nc(-c3ccc(Cl)cc3)nn1C)=C2O [Example I-1-a9-3] |  | 90 | 90 |  |
| Cn1nc(-c2ccccc2)nc1C1=C(O)C2(CCOCC2)NC1=O [Example I-1-a3-5] |  | 100 |  |  |
| COC1CCC2(CC1)NC(=O)C(c1nc(-c3ccc(F)cc3)nn1C)=C2O (centres unmarked) [Example I-1-a2-1] | 100 | 100 |  |  |
| COC1CCC2(CC1)NC(=O)C(c1nc(-c3ccccc3)nn1C)=C2O (centres unmarked) [Example I-1-a2-5] |  | 100 |  |  |
| Cn1nc(-c2ccc(Cl)cc2)nc1C1=C(O)C2(CCC(C(F)(F)F)CC2)NC1=O (centres unmarked) [Example I-1-a8-3] | 100 |  |  |  |
| Cn1nc(-c2ccc(F)cc2)nc1C1=C(O)C2(CCOCC2)NC1=O [Example I-1-a3-1] | 100 |  |  |  |
| COC1CCC2(CC1)NC(=O)C(c1nc(-c3ccc(Cl)cc3)nn1C)=C2O (centres unmarked) [Example I-1-a2-3] | 100 | 100 |  |  |
| CCn1nc(-c2ccc(F)cc2)nc1-c1c(O)n2n(c1=O)CCOCC2 [Example I-8-a5] |  |  | 90 |  |
| CON1CCC2(CC1)NC(=O)C(c1nc(-c3ccc(Cl)cc3)nn1C)=C2O [Example I-1-a10-3] |  | 90 | 90 |  |
| CCCOC1CCC2(CC1)NC(=O)C(c1nc(-c3ccc(Cl)cc3)nn1C)=C2O (centres unmarked) [Example I-1-a6-3] | 90 | 90 |  | efficacy (effect in %, beetle larvae killed) [3]: 100% |
